Reference: patent US9540392B2, “Thienopyrimidines” (BAYER PHARMA AKTIENGESELLSCHAFT, priority 2012, dated 2017)
Each block holds one compound with its values, some of them ahead of it.

Experiments:
human full-length MKNK1 = molecular target: T1, human full-length MKNK1 (Homo sapiens, UniProt Q9BUB5, T385D); assay: MKNK1 kinase high ATP assay (TR-FRET); type: biochemical; conditions: 2 mM ATP, after preincubation with MKNK1; read-out: MKNK1 IC50 (MKNK1 high ATP)
T1 construct: GST (N); purchased Carna Biosciences 02-145; host or cells: insect cells (baculovirus expression system)
T1 sequence (Q9BUB5 1-424 isoform Q9BUB5-2 T344D): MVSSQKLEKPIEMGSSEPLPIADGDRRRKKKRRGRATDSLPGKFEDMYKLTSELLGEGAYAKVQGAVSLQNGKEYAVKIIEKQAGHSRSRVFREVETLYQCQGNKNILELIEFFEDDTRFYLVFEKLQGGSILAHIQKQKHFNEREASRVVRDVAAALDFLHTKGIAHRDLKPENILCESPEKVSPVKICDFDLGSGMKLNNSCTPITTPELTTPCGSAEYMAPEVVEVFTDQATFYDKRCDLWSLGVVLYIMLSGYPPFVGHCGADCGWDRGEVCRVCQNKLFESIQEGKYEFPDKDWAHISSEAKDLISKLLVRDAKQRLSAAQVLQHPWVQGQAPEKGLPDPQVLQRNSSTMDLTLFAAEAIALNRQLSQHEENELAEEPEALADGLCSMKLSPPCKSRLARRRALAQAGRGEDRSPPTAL
Procedure, shortened: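 Compound was preincubated 15 min at 22° C. with MKNK1 in 50 mM HEPES pH 7.5, 5 mM MgCl2, 1.0 mM DTT, then the reaction ran 30 min at 22° C. with 2 mM ATP and 0.06 μM biotinylated peptide (final).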

[1] = test system: 221 kinases other than MKNK; assay: Kinase selectivity profiling (Merck Millipore KinaseProfiler); type: biochemical; conditions: compound at 1 μM
Method: Compounds of the present invention show a higher kinase inhibition selectivity than compounds disclosed in the patent applications WO 2010/023181 A1, WO 2011/104334 A1, WO 2011/104337 A1, WO 2011/104338 A1 and WO 2011/104340 A1 (Boehringer Ingelheim).
The compounds were tested at a concentration of 1 μM using 221 kinases different from MKNK. Kinase activity is expressed as a percentage of the mean kinase activity in the positive control samples. The positive control value is considered to be 100%, and all test samples are measured in relation to this value. For example, a result of 40% means that, in comparison to the positive control sample, 40% kinase activity remains in the presence of the test compound.
Table 6 lists the fraction number of 221 investigated kinases with regard to their remaining activity in the presence of 1 μM of investigated compounds.
The compound described in example 10 is compared to the compound N-[3-(dimethylamino)propyl]-4-[(4-fluoro-2-isopropoxyphenyl)amino]-5-methylthieno[2,3-d]pyrimidine-6-carboxamide which served as reference compound (ref) and has been described in WO 2010/23181, WO 2011/104340 and US 2011/212103.

[2] = test system: eIF4E Ser209 phosphorylation in A549 cells; assay: AlphaScreen SureFire eIF4E Ser209 phosphorylation assay in A549 cells with 20% FCS stimulation; type: cell-based; conditions: Homo sapiens, read-out: pEIF4e (IC50 of the EIF4e phosphorylation)
Description: The AlphaScreen SureFire eIF4E Ser209 phoshorylation assay is used to measure the phosphorylation of endogenous eIF4E in cellular lysates. The AlphaScreen SureFire technology allows the detection of phosphorylated proteins in cellular lysates. In this assay, sandwich antibody complexes, which are only formed in the presence of the analyte (p-eIF4E Ser209), are captured by AlphaScreen donor and acceptor beads, bringing them into close proximity. The excitation of the donor bead provokes the release of singlet oxygen molecules that triggers a cascade of energy transfer in the Acceptor beads, resulting in the emission of light at 520-620 nm.
Surefire EIF4e Alphascreen in A549 cells with 20% FCS stimulation
For the assay the AlphaScreen SureFire p-eIF4E Ser209 10K Assay Kit and the AlphaScreen ProteinA Kit (for 10K assay points) both from Perkin Elmer were used. On day one 50.000 A549 cells were plated in a 96-well plate in 100 μL per well in growth medium (DMEM/Hams' F12 with stable Glutamin, 10% FCS) and incubated at 37° C. After attachment of the cells, medium was changed to starving medium (DMEM, 0.1% FCS, without Glucose, with Glutamin, supplemented with 5 g/L Maltose). On day two, test compounds were serially diluted in 50 μL starving medium with a final DMSO concentration of 1% and were added to A549 cells in test plates at a final concentration range from as high 10 μM to as low 10 nM depending on the activities of the tested compounds. Treated cells were incubated at 37° C. for 2 h. 37 ul FCS was added to the wells (=final FCS concentration 20%) for 20 min. Then medium was removed and cells were lysed by adding 50 μL lysis buffer. Plates were then agitated on a plate shaker for 10 min. After 10 min lysis time, 4 μL of the lysate is transferred to a 384 well plate (Proxiplate from Perkin Elmer) and 5 μL Reaction Buffer plus Activation Buffer mix containing AlphaScreen Acceptor beads was added. Plates were sealed with TopSeal-A adhesive film, gently agitated on a plate shaker for 2 hours at room temperature. Afterwards 2 μL Dilution buffer with AlphaScreen Donor beads were added under subdued light and plates were sealed again with TopSeal-A adhesive film and covered with foil. Incubation takes place for further 2 h gently agitation at room temperature. Plates were then measured in an EnVision reader (Perkin Elmer) with the AlphaScreen program. Each data point (compound dilution) was measured as triplicate.
The IC50 values were determined by means of a 4-parameter fit using the company's own software.

SMILES: O=C(NCc1cccc(F)c1)C1CCc2c(sc3ncnc(Nc4ccc5[nH]ncc5c4)c23)C1 (stereo not shown) [Example 18, N-(3-Fluorobenzyl)-4-(1H-indazol-5-ylamino)-5,6,7,8-tetrahydro[1]benzothieno-[2,3-d]pyrimidine-7-carboxamide]
IC50 (human full-length MKNK1): 2 nM
IC50 [2]: 412 nM

SMILES: O=C(NCc1cccc(C(F)(F)F)c1)C1CCc2c(sc3ncnc(Nc4ccc5[nH]ncc5c4)c23)C1 (stereo not shown) [Example 9, 4-(1H-indazol-5-ylamino)-N-[3-(trifluoromethyl)benzyl]-5,6,7,8-tetrahydro[1]benzothieno[2,3-d]pyrimidine-7-carboxamide]
IC50 (human full-length MKNK1): 3 nM
IC50 [2]: 171 nM

SMILES: Cc1cccc(NC(=O)C2CCc3c(sc4ncnc(Nc5ccc6[nH]ncc6c5)c34)C2)c1 (stereo not shown) [Example 16, 4-(1H-indazol-5-ylamino)-N-(3-methylphenyl)-5,6,7,8-tetrahydro[1]benzothieno[2,3-d]pyrimidine-7-carboxamide]
IC50 (human full-length MKNK1): 5 nM
IC50 [2]: 373 nM

SMILES: Cc1c(C(=O)NCCCN(C)C)sc2ncnc(Nc3ccc(F)cc3OC(C)C)c12 [Ref, N-[3-(dimethylamino)propyl]-4-[(4-fluoro-2-isopropoxyphenyl)amino]-5-methylthieno[2,3-d]pyrimidine-6-carboxamide, reference compound]
IC50 (human full-length MKNK1): 9.8 nM
Fraction number of 221 kinases with remaining activity >30% and <80% [1]: 10/221
Fraction number of 221 kinases with remaining activity ≦30% [1]: 9/221
Fraction number of 221 kinases with remaining activity ≧80% [1]: 202/221
IC50 [2]: 435 nM

SMILES: Cc1cccc(CNC(=O)C2CCc3c(sc4ncnc(Nc5ccc6[nH]ncc6c5)c34)C2)c1 (stereo not shown) [Example 20, 4-(1H-indazol-5-ylamino)-N-(3-methylbenzyl)-5,6,7,8-tetrahydro[1] benzothieno [2,3-d]pyrimidine-7-carboxamide]
IC50 (human full-length MKNK1): 2 nM
IC50 [2]: 344 nM

SMILES: O=C(NCc1ccccc1)C1CCc2c(sc3ncnc(Nc4ccc5[nH]ncc5c4)c23)C1 (stereo not shown) [Example 21, N-Benzyl-4-(1H-indazol-5-ylamino)-5,6,7,8-tetrahydro[1] benzothieno [2,3-d]pyrimidine-7-carboxamide]
IC50 (human full-length MKNK1): 3 nM
IC50 [2]: 381 nM

SMILES: Cc1ccccc1NC(=O)C1CCc2c(sc3ncnc(Nc4ccc5[nH]ncc5c4)c23)C1 (racemic) [Example 75, (RS)-4-(1H-Indazol-5-ylamino)-N-(2-methylphenyl)-5,6,7,8-tetrahydro[1]benzothieno[2,3-d]pyrimidine-7-carboxamide]
IC50 (human full-length MKNK1): 2.7 nM
IC50 [2]: 219 nM

More lines, now with the values ahead:

IC50 (human full-length MKNK1): 12 nM
Fraction number of 221 kinases with remaining activity >30% and <80% [1]: 4/221
Fraction number of 221 kinases with remaining activity ≦30% [1]: 0/221
Fraction number of 221 kinases with remaining activity ≧80% [1]: 217/221
SMILES: CN(C)C(=O)C1CCc2c(sc3ncnc(Nc4ccc5[nH]ncc5c4)c23)C1 (stereo not shown) [Example 10, 4-(1H-indazol-5-ylamino)-N,N-dimethyl-5,6,7,8-tetrahydro[1]benzothieno[2,3-d]pyrimidine-7-carboxamide]

IC50 (human full-length MKNK1): 0.7 nM
IC50 [2]: 203 nM
SMILES: CCNC(=O)C1CCc2c(sc3ncnc(Nc4cc5cn[nH]c5cc4OC)c23)C1 (stereo not shown) [Example 58, N-Ethyl-4-[(6-methoxy-1H-indazol-5-yl)amino]-5,6,7,8-tetrahydro[1]benzothieno[2,3-d]pyrimidine-7-carboxamide]

IC50 (human full-length MKNK1): 0.4 nM
IC50 [2]: 90 nM
SMILES: CC(C)Oc1cc2[nH]ncc2cc1Nc1ncnc2sc3c(c12)CCC(C(=O)N(C)C)C3 (racemic) [Example 70, (RS)—N,N-Dimethyl-4-{[6-(propan-2-yloxy)-1H-indazol-5-yl]amino}-5,6,7,8-tetrahydro[1]benzothieno[2,3-d]pyrimidine-7-carboxamide]

IC50 (human full-length MKNK1): 0.6 nM
IC50 [2]: 75 nM
SMILES: CC(C)NC(=O)C1CCc2c(sc3ncnc(Nc4cc5cn[nH]c5cc4OC(C)C)c23)C1 (racemic) [Example 72, (RS)—N-(Propan-2-yl)-4-{[6-(propan-2-yloxy)-1H-indazol-5-yl]amino}-5,6,7,8-tetrahydro[1]benzothieno[2,3-d]pyrimidine-7-carboxamide]

IC50 (human full-length MKNK1): 0.5 nM
IC50 [2]: 32 nM
SMILES: CC(C)Oc1cc2[nH]ncc2cc1Nc1ncnc2sc3c(c12)CCC(C(=O)N1CCN(C)CC1)C3 (racemic) [Example 71, (RS)-(4-Methylpiperazin-1-yl)(4-{[6-(propan-2-yloxy)-1H-indazol-5-yl]amino}-5,6,7,8-tetrahydro[1]benzothieno[2,3-d]pyrimidin-7-yl)methanone]

IC50 (human full-length MKNK1): 0.5 nM
IC50 [2]: 343 nM
SMILES: COc1cc2[nH]ncc2cc1Nc1ncnc2sc3c(c12)CCC(C(=O)N1CCN(C)CC1)C3 (racemic) [Example 65, (RS)-{4-[(6-Methoxy-1H-indazol-5-yl)amino]-5,6,7,8-tetrahydro[1]benzothieno[2,3-d]pyrimidin-7-yl}(4-methylpiperazin-1-yl)methanone]

IC50 (human full-length MKNK1): 1.6 nM
IC50 [2]: 61 nM
SMILES: COc1cc2[nH]ncc2cc1Nc1ncnc2sc3c(c12)CCC(C(=O)NC(C)C)C3 (racemic) [Example 66, (RS)-4-[(6-Methoxy-1H-indazol-5-yl)amino]-N-(propan-2-yl)-5,6,7,8-tetrahydro[1]benzothieno[2,3-d]pyrimidine-7-carboxamide]

IC50 (human full-length MKNK1): 8 nM
IC50 [2]: 252 nM
SMILES: COc1ccccc1NC(=O)C1CCc2c(sc3ncnc(Nc4ccc5[nH]ncc5c4)c23)C1 (stereo not shown) [Example 12, 4-(1H-indazol-5-ylamino)-N-(2-methoxyphenyl)-5,6,7,8-tetrahydro[1]benzothieno[2,3-d]pyrimidine-7-carboxamide]

IC50 (human full-length MKNK1): 0.8 nM
IC50 [2]: 51 nM
SMILES: COc1cc2[nH]ncc2cc1Nc1ncnc2sc3c(c12)CCC(C(=O)N(C)C)C3 (racemic) [Example 64, (RS)-4-[(6-Methoxy-1H-indazol-5-yl)amino]-N,N-dimethyl-5,6,7,8-tetrahydro[1]benzothieno[2,3-d]pyrimidine-7-carboxamide]
